Source: patent US20240360145A1, “PYRIMIDINE-2,4-DIAMINE DERIVATIVES AS WELL AS PREPARATION METHOD THEREFOR AND USE THEREOF” (LISEN THERAPEUTICS, INC., priority 2022, published 2024)
Counter-ions that a name gives are not always drawn. Like-named read-outs stand apart in the source and are kept apart here. Values belong to the molecule of their own block, whether it stands above or below them.

Tests used:
LT015 primary cells = assay: Cell viability IC50 (CCK-8), primary cells LT015 from small cell lung cancer bronchoscopic biopsy; assay type: cell-based; details: LT015, CCK-8
Procedure: (1) The tissue blocks obtained from the tumor patients were transferred from the preservation solution to the pre-cooled HBSS buffer containing antibiotics, and the tissue blocks were washed for three times with the pre-cooled HBSS buffer.
(2) Tissue was sheared on ice with sterile surgical instruments until no obvious tissue blocks are visible to the naked eye, the tissue fluid was collected into a 15 ml centrifuge tube, and this process takes about 5 to 10 minutes.
(3) Digestive enzymes (collagenase I, collagenase IV and neutral protease being mixed in a ratio of 1:1:1, a concentration of stock solution was 10 mg/ml, diluted with PBS buffer or HBSS buffer, and the use concentration was 1 mg/ml) were added to the centrifuge tube, and after mixing well by pipetting, the centrifuge tube was placed in a 37° C. constant temperature incubator for 1 to 2 hours.
(4) High-glucose medium was added to the centrifuge tube to stop digestion. After mixing well, the cell precipitate was collected by centrifugation, and resuspended with MBM medium (Advanced DMEM-F12+20 ng/ml bFGF+50 ng/ml EGF+1% ITS-X+2% B27+10 μMY-27632+1% PS). The cell suspension was placed in a Matrigel-coated 24-well plate and cultured for 5 to 7 days. When the cell density in the well plate reaches 80-90%, the cells were sub-cultured into a 6 cm cell culture dish, and when they grew to a density of 80% to 90%, the cells were cryopreserved for preservation.
(§1) (1) Primary cells from lung cancer pleural effusion within 5 generations were cultured to the logarithmic growth phase. When the confluence reached about 90%, the cells were digested with 0.25% trypsin, and complete culture medium was added to collect the cells. After centrifugation at room temperature, the supernatant was discarded, and the cell precipitate was resuspended with fresh complete culture medium. After counting, the cells were placed at room temperature for later use. The cells were inoculated into a 384-well plate at a density of 2000 cells/well with a volume of 40 μl/well. The wells at the outermost circle of the plate were not inoculated with cells, and instead, added with sterile water to reduce evaporation of the culture medium.
(§2) (2) After overnight culture of the cells, the medium was discarded, and a fresh medium containing different concentrations of compounds was added at 200 μl/well. The dilution method of the compound was as follows: first the compound with the highest concentration of 10 μM was prepared, and then the compound was diluted for 3 times in sequence. […] At the same time, a blank control group was set up, in which only an equal volume of culture medium was added without adding cells. Five replicate wells were set up for each group. The cells were placed in the incubator for further culture.
(§3) (3) After 72 hours, 8 μl of CCK-8 solution, which was double-diluted with 10 mM PBS, was added to each well, and the cells were shaken and placed in an incubator at 37° C. for further culture for 2 hours.
(§4) (4) The light absorbance value at 450 nm was read using a microplate reader, and the IC50 was calculated according to the absorbance value. The calculation method was the same as above.
(§5) (1) Sample information: PE039, PE052, and PE062 were all primary cell samples from pleural effusion of patients with small cell lung cancer, and LT015 was a primary cell sample from bronchoscopic biopsy of a patient with small cell lung cancer.
(§6) (2) CCK-8 detection was used to detect the IC50 values of different medicaments (compounds).

PE052 primary cells = assay: Cell viability IC50 (CCK-8), primary cells PE052 from small cell lung cancer pleural effusion; assay type: cell-based; details: PE052, CCK-8
Procedure: (§7) (1) The pleural effusion was poured into a 15 mL or 50 mL of sterilized centrifuge tube for centrifugation. Centrifugation conditions: 800 to 1000 rpm, 5 min.
(§8) (2) The precipitate was resuspended and washed for 2 to 3 times with PBS.
(§9) (3) The cell precipitate was resuspended with complete culture medium (α-MEM medium containing 10% fetal bovine serum and 2% penicillin-streptomycin), and the flocculent matter in the pleural effusion was removed using a sterilized cell sieve.
(§10) (4) The red blood cells in the pleural effusion were removed with lymphocyte separation fluid, and the tumor cells and lymphocyte components were collected. The number of tumor cells was observed under a microscope, and the cells were inoculated.
(§11) (5) After 24 hours, the supernatant was discarded, and fresh culture medium was added for further culture.
(§12) (6) The cell growth status was observed, and it was determined based on the cell status whether the medium was required to be continuously changed to remove blood cells. When the cells grew to a density of 80% to 90%, the cells were preserved.
as §1, with “When the confluence reached about 90%, the cells were digested with 0.25% trypsin, and complete culture medium was added to collect the cells.” left out
as §2, §3, §4, §5, §6

PE062 primary cells = assay: Cell viability IC50 (CCK-8), primary cells PE062 from small cell lung cancer pleural effusion; assay type: cell-based; details: PE062, CCK-8
Procedure: as §7, §8, §9, §10, §11, §12
as §1, with “When the confluence reached about 90%, the cells were digested with 0.25% trypsin, and complete culture medium was added to collect the cells.” left out
as §2, §3, §4, §5, §6

NCI-H1975 cells = assay: Cell viability IC50 (MTT), Gefitinib-resistant NCI-H1975 cells
Procedure: (§15) 1% sodium pyruvate was additionally added when culturing NCI-H1975 cells. All the cells were cultured in a constant temperature incubator containing 5% CO2 at 37° C.
(§16) (1) The cells were cultured to the logarithmic growth phase. […] After centrifugation at room temperature, the supernatant was discarded, and the cell precipitate was resuspended with fresh complete medium. After counting, the cells were placed at room temperature for later use.
(§17) (2) The cells were inoculated into a 96-well plate at a density of 4,000 cells/well with a volume of 100 μl/well. The wells at the outermost circle of the plate were not inoculated with cells, and instead, added with sterile water to reduce evaporation of the culture medium.
(§18) (3) After overnight culture of the cells, the medium was discarded, and a fresh medium containing different concentrations of compounds was added at 200 μl/well. The dilution method of the compound was as follows: first the compound with the highest concentration of 10 μM was prepared, and then the compound was diluted for 3 times in sequence. […] At the same time, a blank control group was set up, in which only an equal volume of culture medium was added without adding cells. Six replicate wells were set up for each group. The cells were placed in the incubator for further culture.
(§19) (4) After 72 hours, 20 μl of MTT solution (5 mg/ml) sterilized by filtration through a 0.22 m filter membrane was added to each well, and the cells were cultured in an incubator at 37° C. for another 4 hours.
(§20) (6) IC50 of the compounds for different cells was calculated based on the light absorption value of each group. Specifically, the absorbance value under treatment with different concentrations of compounds was first subtracted from the absorbance value of the blank well, and then the absorbance value of the 0 μM group was taken as 100% to calculate the cell survival rate after treatment with different concentrations of compounds. That is, survival rate=((ODexperimental well−ODblank control)/(ODnegative control−ODblank control))×100%. IC50 values were calculated based on the survival rate and concentration of the compound.

NCI-H1650 cells = assay: Cell viability IC50 (MTT), Gefitinib- and Osimertinib-resistant NCI-H1650 cells; details: Homo sapiens, NCI-H1650, 72 h, read-out: cell viability IC50
Procedure: as §15, §16, §17, §18, §19, §20

NCI-H446 cells = assay: Cell viability IC50 (CCK-8), small cell lung cancer cell line H446; assay type: cell-based; details: Homo sapiens, NCI-H446; H446, CCK-8
Procedure: (§13) Small cell lung cancer cell lines DMS114, NCI-H1688, NCI-H82, NCI-H146, and NCI-H446 cells were cultured in RPMI-1640 medium containing 10% fetal bovine serum and 1% penicillin-streptomycin. All the cells were cultured in a constant temperature incubator containing 5% CO2 at 37° C.
(§14) Small cell lung cancer is a highly heterogeneous malignant tumor, and its clinical treatment is mainly based on traditional chemotherapy (mainly platinum medicaments and etoposide). In order to study the anti-tumor activity of the compounds of the present disclosure in small cell lung cancer, the CCK-8 method was used to investigate the cell viability IC50 of compound 8 for five small cell lung cancer cell lines.

NCI-H146 cells = assay: Cell viability IC50 (CCK-8), small cell lung cancer cell line H146; assay type: cell-based; details: Homo sapiens, NCI-H146; H146, CCK-8
Procedure: as §13, §14

NCI-H1688 cells = assay: Cell viability IC50 (CCK-8), small cell lung cancer cell line H1688; assay type: cell-based; details: NCI-H1688; H1688, CCK-8
Procedure: as §13, §14

DMS114 cells = assay: Cell viability IC50 (CCK-8), small cell lung cancer cell line DMS114; assay type: cell-based; details: Homo sapiens, DMS-114; DMS114, CCK-8
Procedure: as §13, §14

NCI-H82 cells = assay: Cell viability IC50 (CCK-8), small cell lung cancer cell line H82; assay type: cell-based; details: Homo sapiens, NCI-H82; H82, CCK-8
Procedure: as §13, §14

PE043 primary cells = assay: Cell viability IC50 (CCK-8), primary cells PE043 from lung adenocarcinoma pleural effusion resistant to EGFR-TKI; details: read-out: cell viability IC50
Procedure: (1) Primary cells from lung cancer pleural effusion within 5 generations were cultured to the logarithmic growth phase. […] After centrifugation at room temperature, the supernatant was discarded, and the cell precipitate was resuspended with fresh complete culture medium. After counting, the cells were placed at room temperature for later use. The cells were inoculated into a 384-well plate at a density of 2000 cells/well with a volume of 40 μl/well. The wells at the outermost circle of the plate were not inoculated with cells, and instead, added with sterile water to reduce evaporation of the culture medium.

PE039 primary cells = assay: Cell viability IC50 (CCK-8), primary cells PE039 from small cell lung cancer pleural effusion; assay type: cell-based; details: PE039, CCK-8
Procedure: as §7, §8, §9, §10, §11, §12
as §1, with “When the confluence reached about 90%, the cells were digested with 0.25% trypsin, and complete culture medium was added to collect the cells.” left out
as §2, §3
(4) The light absorbance value at 450 nm was read using a microplate reader, and the IC50 was calculated according to the absorbance value. The calculation method was the same as above. […]

[1] = Homo sapiens, NCI-H1975, 72 h, read-out: cell viability IC50

Structure (SMILES): COc1cc2c(Oc3ccc4[nH]c(C)cc4c3F)ccnc2cc1OCC1(N)CC1 [Anlotinib]
IC50 (LT015 primary cells): 2.07 µM
IC50 (PE052 primary cells): 9.44 µM
IC50 (PE062 primary cells): 1500 nM

Structure (SMILES): CN1CCN(Cc2ccc(Nc3ncc(Cl)c(Nc4ccncc4S(=O)(=O)N(C)C)n3)cc2)CC1 [Compound 6, 4-((5-chloro-2-((4-((4-methylpiperazin-1-yl)methyl)phenyl)amino)pyrimidin-4-yl)amino)-N,N-dimethylpyridine-3-sulfonamide]
IC50 (NCI-H1975 cells; [1]): 47.7 nM
IC50 (NCI-H1650 cells): 250 nM

Structure (SMILES): CN1C2CCC1CN(Cc1ccc(Nc3ncc(Cl)c(Nc4ccccc4S(=O)(=O)N(C)C)n3)cc1)C2 [Compound 9, 2-((5-chloro-2-((4-((8-methyl-3,8-diazabicyclo[3.2.1]octan-3-yl)methyl)phenyl)amino)pyrimidin-4-yl)amino)-N,N-dimethylbenzenesulfonamide]
IC50 (NCI-H1975 cells; [1]): 25.3 nM
IC50 (NCI-H1650 cells): 170 nM

Structure (SMILES): CNS(=O)(=O)c1ccccc1Nc1nc(Nc2ccc(CN3C4CCC3CN(C)C4)cc2)ncc1Cl [Compound 15, 2-((5-chloro-2-((4-((3-methyl-3,8-diazabicyclo[3.2.1]octan-8-yl)methyl)phenyl)amino)pyrimidin-4-yl)amino)-N-methylbenzenesulfonamide]
IC50 (NCI-H446 cells): 6.54 nM
IC50 (NCI-H146 cells): 16.2 nM
IC50 (NCI-H1688 cells): 9.16 nM
IC50 (DMS114 cells): 8.53 nM

Structure (SMILES): C[C@@H](Oc1cc(-c2cnn(C3CCNCC3)c2)cnc1N)c1c(Cl)ccc(F)c1Cl [Crizotinib]
IC50 (PE062 primary cells): 900 nM

Structure (SMILES): COc1cc([C@@H]2c3cc4c(cc3[C@@H](O[C@@H]3O[C@@H]5CO[C@@H](C)O[C@H]5[C@H](O)[C@H]3O)[C@H]3COC(=O)[C@H]23)OCO4)cc(OC)c1O [Etoposide]
IC50 (LT015 primary cells): 48.2 µM
IC50 (NCI-H446 cells): 1060 nM
IC50 (NCI-H82 cells): 545 nM
IC50 (NCI-H146 cells): 434 nM
IC50 (NCI-H1688 cells): 739 nM
IC50 (DMS114 cells): 917 nM
IC50 (PE062 primary cells): 770 nM

Structure (SMILES): Nc1ccn([C@@H]2O[C@H](CO)[C@@H](O)C2(F)F)c(=O)n1 [Gemcitabine]
IC50 (PE043 primary cells): > 834 µM

Structure (SMILES): C=CC(=O)Nc1cc(Nc2nccc(-c3cn(C)c4ccccc34)n2)c(OC)cc1N(C)CCN(C)C [Osimertinib]
IC50 (PE052 primary cells): 0.568 µM
IC50 (PE039 primary cells): 3.99 µM
IC50 (PE043 primary cells): 3.37 µM
IC50 (NCI-H1650 cells): 2750 nM
IC50 (PE062 primary cells): 2740 nM

Continued, values first:

IC50 (NCI-H1975 cells; [1]): 86.4 nM
IC50 (NCI-H1650 cells): 466 nM
Structure (SMILES): CN1CCN(Cc2ccc(Nc3ncc(Cl)c(Nc4ccccc4S(=O)(=O)N(C)C)n3)cn2)CC1 [Compound 2, 2-((5-chloro-2-((6-((4-methylpiperazin-1-yl)methyl)pyridin-3-yl)amino)pyrimidin-4-yl)amino)-N,N-dimethylbenzenesulfonamide]

IC50 (NCI-H1975 cells; [1]): 28.3 nM
IC50 (NCI-H1650 cells): 37.8 nM
Structure (SMILES): CN(C)CCN1Cc2ccc(Nc3ncc(Cl)c(Nc4ccccc4S(=O)(=O)N(C)C)n3)cc2C1 [Compound 3, 2-((5-chloro-2-((2-(2-(dimethylamino)ethyl)isodihydroindol-5-yl)amino)pyrimidin-4-yl)amino)-N,N-dimethylbenzenesulfonamide]

IC50 (NCI-H1975 cells; [1]): 87.7 nM
IC50 (NCI-H1650 cells): 163 nM
Structure (SMILES): CN(C)C1CCN(Cc2ccc(Nc3ncc(Cl)c(Nc4ccccc4S(=O)(=O)N(C)C)n3)cc2)C1 (centres unmarked) [Compound 4, 2-((5-chloro-2-((4-((3-(dimethylamino)pyrrolidin-1-yl)methyl)phenyl)amino)pyrimidin-4-yl)amino)-N,N-dimethylbenzenesulfonamide]

IC50 (NCI-H1975 cells; [1]): 21.5 nM
IC50 (NCI-H1650 cells): 136 nM
Structure (SMILES): C[C@@H]1CN(Cc2ccc(Nc3ncc(Cl)c(Nc4ccccc4S(=O)(=O)N(C)C)n3)cc2)C[C@H](C)N1C [Compound 10, 2-((5-chloro-2-((4-(((3R,5S)-3,4,5-trimethylpiperazin-1-yl)methyl)phenyl)amino)pyrimidin-4-yl)amino)-N,N-dimethylbenzenesulfonamide]

IC50 (NCI-H1975 cells; [1]): 29.1 nM
IC50 (NCI-H1650 cells): 32.5 nM
Structure (SMILES): COCCN1CCc2cc(Nc3ncc(Cl)c(Nc4ccccc4S(=O)(=O)N(C)C)n3)ccc2C1 [Compound 11, 2-((5-chloro-2-((2-(2-methoxyethyl)-1,2,3,4-tetrahydroisoquinolin-6-yl)amino)pyrimidin-4-yl)amino)-N,N-dimethylbenzenesulfonamide formate]

IC50 (NCI-H1975 cells; [1]): 18.6 nM
IC50 (NCI-H1650 cells): 75.2 nM
Structure (SMILES): CNCCN1CCc2cc(Nc3ncc(Cl)c(Nc4ccccc4S(=O)(=O)N(C)C)n3)ccc2C1 [Compound 12, 2-((5-chloro-2-((2-(2-(methylamino)ethyl)-1,2,3,4-tetrahydroisoquinolin-6-yl)amino)pyrimidin-4-yl)amino)-N,N-dimethylbenzenesulfonamide]

IC50 (NCI-H1975 cells; [1]): 19.8 nM
IC50 (NCI-H1650 cells): 67.3 nM
Structure (SMILES): CN(C)CCN1CCc2cc(Nc3ncc(Cl)c(Nc4ccccc4S(=O)(=O)N(C)C)n3)ccc2C1 [Compound 13, 2-((5-chloro-2-((2-(2-(dimethylamino)ethyl)-1,2,3,4-tetrahydroisoquinolin-6-yl)amino)pyrimidin-4-yl)amino)-N,N-dimethylbenzenesulfonamide formate]
